Source: PMC12527922, “Cocaine chemogenetics blunts drug-seeking by synthetic physiology” (Nature, 2025)
Where “and” joins values, the source holds several entries; their conditions need not be identical. Equal values may be shown once.

Legend:
[1] = target: coca-5HT3 (α7(L141G,G175K,Y210F,Y217F)–5HT3) (Homo sapiens, UniProt P36544, G175K/L141G/Y210F/Y217F); test: Membrane potential assay, coca-5HT3 in HEK293; details: for Response / Max normalized Response: coca-5HT3; for activation of coca-5HT3: membrane potential assay dose response; for Max normalized Response: ED Fig 3b
Chain of coca-5HT3 (α7(L141G,G175K,Y210F,Y217F)–5HT3) (P36544 23-224 L141G/G175K/Y210F/Y217F): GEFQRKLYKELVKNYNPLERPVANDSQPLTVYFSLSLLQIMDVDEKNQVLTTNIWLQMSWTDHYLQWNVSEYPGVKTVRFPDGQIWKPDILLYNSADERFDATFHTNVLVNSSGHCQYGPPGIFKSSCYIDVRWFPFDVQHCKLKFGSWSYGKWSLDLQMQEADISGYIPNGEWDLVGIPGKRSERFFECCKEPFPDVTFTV
Chain of coca-5HT3 (α7(L141G,G175K,Y210F,Y217F)–5HT3) (P23979 242-489, further chain): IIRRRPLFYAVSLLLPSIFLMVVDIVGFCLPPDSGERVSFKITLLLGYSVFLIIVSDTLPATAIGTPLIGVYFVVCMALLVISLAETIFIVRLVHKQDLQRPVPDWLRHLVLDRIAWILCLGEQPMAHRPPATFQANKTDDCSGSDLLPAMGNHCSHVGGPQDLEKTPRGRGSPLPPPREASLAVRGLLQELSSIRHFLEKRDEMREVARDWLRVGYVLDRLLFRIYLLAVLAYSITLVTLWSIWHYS

[2] = target: T1, unmodified α7–5HT3 (UniProt P23979+P36544, M226I/T225I); test: Membrane potential assay, unmodified α7–5HT3; type: cell-based, human α7 nAChR LBD, mouse 5HT3 IPD
T1 construct: expressed in transfected cells; host or cells: HEK293 (ATCC CRL-1573), pcDNA3.1
T1 sequence (P36544+P23979 fused P36544:T225I/P36544:M226I): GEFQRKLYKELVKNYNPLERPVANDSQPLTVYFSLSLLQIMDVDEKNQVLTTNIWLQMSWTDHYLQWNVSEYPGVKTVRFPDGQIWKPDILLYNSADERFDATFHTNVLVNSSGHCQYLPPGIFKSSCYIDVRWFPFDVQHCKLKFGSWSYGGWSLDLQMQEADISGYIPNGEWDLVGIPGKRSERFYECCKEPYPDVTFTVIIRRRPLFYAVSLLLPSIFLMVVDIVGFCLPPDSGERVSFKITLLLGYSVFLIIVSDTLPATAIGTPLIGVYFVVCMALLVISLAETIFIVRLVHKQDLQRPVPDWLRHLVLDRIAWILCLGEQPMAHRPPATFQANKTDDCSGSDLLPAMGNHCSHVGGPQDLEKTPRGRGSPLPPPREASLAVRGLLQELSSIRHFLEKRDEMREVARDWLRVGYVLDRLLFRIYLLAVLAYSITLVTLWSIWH

[3] = a75HT3, [Nicotine] 0.0457247 uM
[4] = coca5HT3, [Nicotine] 1.37037 uM
[5] = coca5HT3, [Nicotine] 4.11111 uM
[6] = coca5HT3, [Nicotine] 12.3333 uM

CN[C@@H](C)Cc1ccccc1 [methamphetamine]
Response ([1]; conc 0.0137 uM, ED Fig. 2c): 0.198
Response ([1]; conc 0.123 uM, ED Fig. 2c): 0.256
Response ([1]; conc 0.37 uM, ED Fig. 2c): 0.136
Response ([1]; conc 10 uM, ED Fig. 2c): 0.224
Response ([1]; conc 30 uM, ED Fig. 2c): 0.204
activation of coca-5HT3 [1]: did not activate

CN1CC[C@]23c4c5ccc(O)c4O[C@H]2[C@@H](O)C=C[C@H]3[C@H]1C5 [morphine]
Response ([1]; conc 0.0137 uM, ED Fig. 2c): 0.063
Response ([1]; conc 0.123 uM, ED Fig. 2c): 0.114
Response ([1]; conc 0.37 uM, ED Fig. 2c): 0.04
Response ([1]; conc 10 uM, ED Fig. 2c): 0.069
Response ([1]; conc 30 uM, ED Fig. 2c): 0.121
activation of coca-5HT3 [1]: did not activate

CCCC[N+]1(C)[C@@H]2C[C@@H](OC(=O)[C@H](CO)c3ccccc3)C[C@H]1[C@@H]1O[C@@H]12 (stereo partly shown) [n-Butylscopolamine]
Max normalized Response ([1]; conc 0.137 uM): 0.07428
Max normalized Response ([1]; conc 3.7 uM): 0.05731
Max normalized Response ([1]; conc 11.1 uM): 0.07366
Max normalized Response ([1]; conc 33.3 uM): 0.04125
Max normalized Response ([1]; conc 100 uM): 0.03532

CN1CCC[C@H]1c1cccnc1 [nicotine]
activity at unmutated α7–5HT3 chimeric channel [2]: agonist
max response of each dose-response replicate ([2]; a75HT3, Nicotine, used for normalization): 0.486 (2×) and 0.554 (2×) and 0.608 (2×)
Max normalized response, AVG [2, 3]: 0.008293
Max normalized response, replicates [2, 3]: 0 (2×) and 0.02166 (2×) and 0.01151 (2×)
Response, dose-response replicates (DR 1-6) [2, 3]: 0 (2×) and 0.012 (2×) and 0.007 (2×)
Max normalized response, AVG ([2]; a75HT3, [Nicotine] 0.137174 uM): 0.001891
Max normalized response, replicates ([2]; a75HT3, [Nicotine] 0.137174 uM): 0.002058 (2×) and 0.001805 (2×) and 0.001645 (2×)
Response, dose-response replicates (DR 1-6) ([2]; a75HT3, [Nicotine] 0.137174 uM): 0.001
Max normalized response, AVG ([2]; a75HT3, [Nicotine] 0.411523 uM): 0.009729
Max normalized response, replicates ([2]; a75HT3, [Nicotine] 0.411523 uM): 0.004115 (2×) and 0.03069 (2×) and 0 (2×)
Response, dose-response replicates (DR 1-6) ([2]; a75HT3, [Nicotine] 0.411523 uM): 0.002 (2×) and 0.017 (2×) and 0 (2×)
Max normalized response, AVG ([2]; a75HT3, [Nicotine] 1.23457 uM): 0.08187
Max normalized response, replicates ([2]; a75HT3, [Nicotine] 1.23457 uM): 0.1152 (2×) and 0 (2×) and 0.09704 (2×)
Response, dose-response replicates (DR 1-6) ([2]; a75HT3, [Nicotine] 1.23457 uM): 0.056 (2×) and 0 (2×) and 0.059 (2×)
Max normalized response, AVG ([2]; a75HT3, [Nicotine] 3.7037 uM): 0.6699
Max normalized response, replicates ([2]; a75HT3, [Nicotine] 3.7037 uM): 0.8354 (2×) and 0.4874 (2×) and 0.5214 (2×)
Response, dose-response replicates (DR 1-6) ([2]; a75HT3, [Nicotine] 3.7037 uM): 0.406 (2×) and 0.27 (2×) and 0.317 (2×)
Max normalized response, AVG ([2]; a75HT3, [Nicotine] 11.1111 uM): 1
Max normalized response, replicates ([2]; a75HT3, [Nicotine] 11.1111 uM): 1
Response, dose-response replicates (DR 1-6) ([2]; a75HT3, [Nicotine] 11.1111 uM): 0.486 (2×) and 0.554 (2×) and 0.608 (2×)
Max normalized response, AVG ([2]; a75HT3, [Nicotine] 33.3333 uM): 0.8953
Max normalized response, replicates ([2]; a75HT3, [Nicotine] 33.3333 uM): 0.8436 (2×) and 0.9711 (2×) and 0.9227 (2×)
Response, dose-response replicates (DR 1-6) ([2]; a75HT3, [Nicotine] 33.3333 uM): 0.41 (2×) and 0.538 (2×) and 0.561 (2×)
Max normalized response, AVG ([2]; a75HT3, [Nicotine] 100 uM): 0.8025
Max normalized response, replicates ([2]; a75HT3, [Nicotine] 100 uM): 0.9585 (2×) and 0.8503 (2×) and 0.5988
Response, dose-response replicates (DR 1-6) ([2]; a75HT3, [Nicotine] 100 uM): 0.291 and 0.531 (2×) and 0.517 (2×)
reduced potency for coca-5HT3 versus unmutated α7–5HT3 [1]: greater than 300 fold
max response of each dose-response replicate ([1]; coca5HT3, Nicotine, used for normalization): 0.477 and 0.607 and 0.383 and 0.555
Max normalized response, AVG [1, 4]: 0.06271
Max normalized response, replicates [1, 4]: 0.03243 and 0.1069 and 0.09061 and 0.02089
Response, dose-response replicates (DR 1-4) [1, 4]: 0.051 and 0.055 and 0.008 and 0.018
Max normalized response, AVG [1, 5]: 0.05584
Max normalized response, replicates [1, 5]: 0.06667 and 0.05451 and 0.03954 and 0.06266
Response, dose-response replicates (DR 1-4) [1, 5]: 0.026 and 0.024 (2×) and 0.037
Max normalized response, AVG [1, 6]: 0.06127
Max normalized response, replicates [1, 6]: 0.03964 and 0.07966 and 0.08402 and 0.04178
Response, dose-response replicates (DR 1-4) [1, 6]: 0.038 and 0.051 and 0.016 and 0.022
Max normalized response, AVG ([1]; coca5HT3, [Nicotine] 37 uM): 0.1199
Max normalized response, replicates ([1]; coca5HT3, [Nicotine] 37 uM): 0.1225 and 0.1426 and 0.196 and 0.01828
Response, dose-response replicates (DR 1-4) ([1]; coca5HT3, [Nicotine] 37 uM): 0.068 (2×) and 0.119 and 0.007
Max normalized response, AVG ([1]; coca5HT3, [Nicotine] 111 uM): 0.2452
Max normalized response, replicates ([1]; coca5HT3, [Nicotine] 111 uM): 0.3009 and 0.2537 and 0.374 and 0.05222
Response, dose-response replicates (DR 1-4) ([1]; coca5HT3, [Nicotine] 111 uM): 0.121 and 0.227 and 0.02 and 0.167
Max normalized response, AVG ([1]; coca5HT3, [Nicotine] 333 uM): 0.4535
Max normalized response, replicates ([1]; coca5HT3, [Nicotine] 333 uM): 0.5495 and 0.5975 and 0.5157 and 0.1514
Response, dose-response replicates (DR 1-4) ([1]; coca5HT3, [Nicotine] 333 uM): 0.285 and 0.313 and 0.058 and 0.305
Max normalized response, AVG ([1]; coca5HT3, [Nicotine] 1000 uM): 0.6843
Max normalized response, replicates ([1]; coca5HT3, [Nicotine] 1000 uM): 0.8198 and 0.7044 and 0.7249 and 0.4883
Response, dose-response replicates (DR 1-4) ([1]; coca5HT3, [Nicotine] 1000 uM): 0.44 and 0.187 and 0.455
Max normalized response, AVG ([1]; coca5HT3, [Nicotine] 3000 uM): 1
Max normalized response, replicates ([1]; coca5HT3, [Nicotine] 3000 uM): 1
Response, dose-response replicates (DR 1-4) ([1]; coca5HT3, [Nicotine] 3000 uM): 0.477 and 0.607 and 0.383 and 0.555
Response ([1]; conc 0.0137 uM, ED Fig. 2c): 0.106
Response ([1]; conc 0.123 uM, ED Fig. 2c): 0.216
Response ([1]; conc 0.37 uM, ED Fig. 2c): 0.045
Response ([1]; conc 10 uM, ED Fig. 2c): 0.163
Response ([1]; conc 30 uM, ED Fig. 2c): 0.238

COc1ccc2c3c1O[C@H]1C(=O)CC[C@@]4(O)[C@@H](C2)N(C)CC[C@]314 [oxycodone]
Response ([1]; conc 0.0137 uM, ED Fig. 2c): 0.109
Response ([1]; conc 0.123 uM, ED Fig. 2c): 0.086
Response ([1]; conc 0.37 uM, ED Fig. 2c): 0.066
Response ([1]; conc 10 uM, ED Fig. 2c): 0.081
Response ([1]; conc 30 uM, ED Fig. 2c): 0.117
activation of coca-5HT3 [1]: did not activate

ecgonine
Response ([1]; conc 0.0137174 uM, ED Fig. 2b): 0.052
Response ([1]; conc 0.123457 uM, ED Fig. 2b): 0.065
Response ([1]; conc 0.37037 uM, ED Fig. 2b): 0.073
Response ([1]; conc 1.11111 uM, ED Fig. 2b): 0.07
Response ([1]; conc 3.33333 uM, ED Fig. 2b): 0.053
Response ([1]; conc 10 uM, ED Fig. 2b): 0.084
Response ([1]; conc 30 uM, ED Fig. 2b): 0.084
activation of coca-5HT3 [1]: not activated
